“Also recorded” adds a separate entry of the source.
Columns and labels:
[1] = system: Ikkβ^f/f and Ikkβ^Δ dih10 cells; assay: Subcutaneous tumor growth of implanted dih10 hepatoma cells in C57BL/6 mice; type: in vivo, mouse
Protocol: FIG. 20. IKKβ deletion in initiated cells enhances proliferation and self-renewal of HCC progenitors. (A) DEN-induced HCC (dih) cell strains from Ikkβ^f/f mice were cultured and infected with Adv-GFP or Adv-Cre. Whole cell lysates of infected dih10 cells were immunoblotted for IKKβ (bottom panel). The cells were further cultured without serum on Petri dishes to form hepatospheres (upper panels). Numbers of 1^0 and 2^0 hepatospheres formed per 100 plated cells were determined (n=3; *: p<0.05). Magnification bar=100 μm. (B) Ikkβ^f/f dih10 cells were infected with an empty retrovirus (vector) or a retrovirus expressing IκBα super-repressor (SR). Stably transfected cells were selected and cultured as above and hepatosphere formation was analyzed (n=3; *: p<0.05). (C, D) IKKβ expressing (Ikkβ^f/f) and deficient (Ikkβ^Δ) dih10 cells (2.5×10^6 each) were s.c. injected into 8 weeks old C57BL/6 mice. (C) Allograft volume was measured weekly (n=5; *: p<0.01). Dissected tumors are shown on the right. (D) BrdU incorporation into tumors was determined (n=5; *: p<0.05). (E) Ikkβ^f/f and Ikkβ^Δ dih12 cells were labeled with dsRed and 4×10^5 cells were seeded into MUP-uPA mouse livers. Relative amounts of dsRed DNA in transplanted MUP-uPA livers were determined by real-time PCR 3 weeks post-inoculation and normalized to actin DNA as a measurement of cell growth (n=5; *: p<0.05). (F) Ikkβ^Δ dih10 cells were reconstituted with a control vector or WT IKKβ expression vector and were s.c. injected into 8 weeks old C57BL/6 mice. Allograft volume was measured weekly (n=5; *: p<0.01). (G) Ikkβ^f/f and IkkβΔ dih10 cells were s.c. injected as above. Starting from day 2, mice were treated daily with MLN120B or vehicle by oral gavage. Tumor volume was measured weekly (n=5; *: p<0.01, f/f/control vs. f/f/MLN by one-way ANOVA). Please also see FIG. 27.
(§1) FIG. 22. ROS-mediated SHP1/2 inhibition in IKKβ-deficient HCCs correlates with STAT3 activation and accelerated tumor growth. (A) Tumors derived from Ikkβ^f/f (f/f) and Ikkβ^Δ (Δ) dih10 cells were collected and lysed. Tumor lysates were immunoprecipitated with an anti-JAK2 antibody and examined for JAK2 tyrosine phosphorylation with PY20 antibody. Tumor lysates were also used for immunoblot analyses with the indicated antibodies. (B) SHP1 and SHP2 were immunoprecipitated from above tumor lysates and their phosphatase activities were measured (n=4; *: p<0.05). (C) Fresh frozen sections of HCCs from transplanted MUP-uPA mice were analyzed for superoxide accumulation by DHE staining. Fluorescence intensity in several fields was quantitated by ImageJ and relative average increases in fluorescent intensity are shown (n=3; *: p<0.01). Magnification bar=100 μm. (D-F) Ikkβ^f/5 (f/f) and Ikkβ^Δ (Δ) dih10 cells […] each were s.c. implanted into 8 weeks old C57BL/6 mice. Starting on day 2, the mice were switched to a diet containing vehicle or BHA (0.7%) for 6 weeks. (D) Tumors were collected from BHA treated and untreated mice, lysed and SHP1/2 phosphatase activities were measured. The data were plotted as SHP1/2 phosphatase activities in Ikkβ^Δ tumors relative to activities in Ikkβ^f/f tumors (n=4; *: p<0.05). (E) Tumor lysates were used to determine JNK kinase activity and STAT3 phosphorylation. (F) Tumor volume was measured weekly (n=5; p<0.01, Δ/ctrl vs. Δ/BHA by one way ANOVA). Please also see FIG. 29.
FIG. 30. STAT3 is required for HCC formation and growth. (A-D) Ikkβ^f/f (f/f) and Ikkβ^Δ (Δ) dih10 cells were s.c. implanted into 8 weeks old C57BL/6 mice. (A) Starting on day 2, the mice were i.p. injected with vehicle (ctrl) or 0.5 mg/mouse AG490 daily. Tumor volume was measured (n=5; p<0.05, f/f/vehicle vs. f/f/AG490; p<0.01, Δ/vehicle vs. Δ/AG490 by one way ANOVA). (B) After 6 weeks, tumors were removed, lysed and analyzed by immunoblotting with the indicated antibodies. […] (D) After 6 weeks, tumors were removed and analyzed as above. […]

[2] = biological target: T1, STAT3 (Mus musculus, UniProt P42227); assay: STAT3 phosphorylation in lysates of dih10 tumors (immunoblot); type: in vivo
T1 construct: from tissue; host or cells: subcutaneous tumors formed by Ikkβf/f or IkkβΔ dih10 cells in C57BL/6 mice

[3] = system: STAT3 phosphorylation in HepG2 cells; assay: IL-6 induced STAT3 phosphorylation by immunoblotting in HepG2 cells; type: cell-based; conditions: human liver cancer cell line (HepG2) serum starved 48 hrs; 20 μM MLN120B; 10 ng/ml IL-6 30 min
Protocol: (§2) FIG. 28. IKKβ ablation enhances STAT3 activation. (A) Ikkβ^f/f and Ikkβ^Δ dih10 cells were cultured under hepatosphere-forming conditions for 3 days and treated with 10 ng/ml of IL-6 for the indicated times. Whole cell lysates were analyzed by immunoblotting for STAT3 phosphorylation. (B) Ikkβ^f/f and Ikkβ^Δ dih10 cells were cultured under hepatosphere-forming conditions for 3 days and treated with 10 ng/ml of IL-22 for 30 min. STAT3 phosphorylation was analyzed as above. (C) Ikkβ^Δ dih10 cells were cultured under hepatosphere-forming conditions and infected with a control Adv or an Adv vector expressing constitutively active IKKβ^EE. The cells were treated with 10 ng/ml of IL-6 for 15 min and STAT3 phosphorylation was analyzed. (D) Ikkβ^f/f dih10 cells and HepG2 cells were serum starved for 48 hrs and treated with 20 μM MLN120B for the indicated times. The cells were then stimulated with 10 ng/ml of IL-6 for 30 min and STAT3 phosphorylation was analyzed by immunoblotting. Relative activities (RA) of STAT3 phosphorylation were determined by densitometry. (E) Ikkβ^f/f (f/f) and Ikkβ^Δ (Δ) HCCs from transplanted MUP-uPA mice were collected and total RNA was extracted. Expression of IL-6 and IL-22 mRNAs was measured by RT PCR.
(§3) RNA extraction and q-PCR were described (Sakurai et al., 2006). […] SHP1/2 phosphatase activities were determined as described (Lee and Esselman, 2002).

[4] = system: STAT3 phosphorylation in Ikkβ^f/f dih10 cells; assay: IL-6 induced STAT3 phosphorylation by immunoblotting in dih10 cells; type: cell-based, mouse; conditions: dih cells serum starved 48 hrs; 20 μM MLN120B; 10 ng/ml IL-6 30 min
Protocol: as §2, §3

[5] = system: liver; conditions: cited from earlier work
[6] = system: JAK2; assay: JAK2 phosphorylation in IKKβ-deficient tumors; type: in vivo, mouse; conditions: BHA treatment of tumor-bearing mice
Description: as §1, with “The data were plotted as SHP1/2 phosphatase activities in Ikkβ^Δ tumors relative to activities in Ikkβ^f/f tumors (n=4; *: p<0.05). (E) Tumor lysates were used to determine JNK kinase activity and STAT3 phosphorylation.” left out, “Please also see FIG. 29.” left out

[7] = system: JNK; assay: JNK kinase activity in lysates of dih10 tumors; type: in vivo, mouse; conditions: diet containing BHA (0.7%) for 6 weeks
Description: as §1, with “Starting on day 2, the mice were switched to a diet containing vehicle or BHA (0.7%) for 6 weeks.” left out, “The data were plotted as SHP1/2 phosphatase activities in Ikkβ^Δ tumors relative to activities in Ikkβ^f/f tumors (n=4; *: p<0.05). (E) Tumor lysates were used to determine JNK kinase activity and STAT3 phosphorylation.” left out, “Please also see FIG. 29.” left out
as §3

[8] = system: SHP1 and SHP2; assay: SHP1/2 phosphatase activities in lysates of dih10 tumors; type: in vivo, mouse; conditions: diet containing BHA (0.7%) for 6 weeks
Description: as §1, with “Starting on day 2, the mice were switched to a diet containing vehicle or BHA (0.7%) for 6 weeks.” left out, “The data were plotted as SHP1/2 phosphatase activities in Ikkβ^Δ tumors relative to activities in Ikkβ^f/f tumors (n=4; *: p<0.05). (E) Tumor lysates were used to determine JNK kinase activity and STAT3 phosphorylation.” left out, “Please also see FIG. 29.” left out
as §3

[9] = system: human breast cancer cell line with constitutive STAT3 activity; conditions: in vivo; cited from earlier work
[10] = system: Huh-7; conditions: 5 mg/kg given every other day; cited from earlier work
[11] = system: liver; conditions: cited from earlier work; remark: listed apart in the source
[12] = system: many different types of cancer cells transplanted into mice; conditions: in vivo; cited from earlier work
[13] = AG490 0.5 mg/mouse i.p. daily from day 2
[14] = s.c. dih10 in C57BL/6, MLN120B daily by oral gavage from day 2
[15] = diet containing BHA (0.7%) for 6 weeks

T1 sequence (P42227 whole entry): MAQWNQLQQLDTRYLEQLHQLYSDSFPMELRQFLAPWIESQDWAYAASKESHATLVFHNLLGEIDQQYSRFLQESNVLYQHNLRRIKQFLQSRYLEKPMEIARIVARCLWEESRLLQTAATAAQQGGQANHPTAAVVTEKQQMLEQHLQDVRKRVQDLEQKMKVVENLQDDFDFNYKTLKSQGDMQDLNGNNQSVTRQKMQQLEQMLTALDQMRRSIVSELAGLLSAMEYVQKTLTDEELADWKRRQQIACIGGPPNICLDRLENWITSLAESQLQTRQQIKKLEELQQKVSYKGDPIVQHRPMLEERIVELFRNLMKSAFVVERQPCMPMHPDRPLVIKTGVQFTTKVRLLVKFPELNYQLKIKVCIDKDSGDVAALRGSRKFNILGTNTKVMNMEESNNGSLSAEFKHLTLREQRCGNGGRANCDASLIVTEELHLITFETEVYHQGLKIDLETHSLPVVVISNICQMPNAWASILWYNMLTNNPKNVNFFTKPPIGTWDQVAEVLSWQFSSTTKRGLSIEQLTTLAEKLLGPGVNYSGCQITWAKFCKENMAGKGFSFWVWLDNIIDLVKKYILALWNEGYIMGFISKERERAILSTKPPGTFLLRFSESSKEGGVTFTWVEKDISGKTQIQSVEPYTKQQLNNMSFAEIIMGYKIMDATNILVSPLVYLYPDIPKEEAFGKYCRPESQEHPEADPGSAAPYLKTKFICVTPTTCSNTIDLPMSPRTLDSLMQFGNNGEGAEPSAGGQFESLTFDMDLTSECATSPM

**Q.** Which results are given for `N#C/C(=C/c1ccc(O)c(O)c1)C(=O)NCc1ccccc1` [AG490]?
**A.** in vivo tumorigenic growth of dih cells [1]: effective inhibition; Ikkβ^f/f tumorigenic growth [1, 13]: more modest effect; growth of Ikkβ^Δ subcutaneous tumors [1, 13]: inhibited the growth; STAT3 activity in dih cell tumors [2]: effective inhibition; STAT3 phosphorylation in tumors ([2]; AG490 0.5 mg/mouse i.p. daily, tumors after 6 weeks, both IKKβ status): inhibited STAT3 phosphorylation regardless of IKKβ status

**Q.** For `COc1c(Cl)cc2c([nH]c3cnccc32)c1NC(=O)c1cccnc1C` [MLN120B], which “IL-6 induced STAT3 activation” value [3] is on record?
**A.** The value was “enhanced IL-6 induced STAT3 activation”.

**Q.** And the “tumorigenic growth (tumor volume) of Ikkβ^f/f dih cells” value [1, 14]?
**A.** The value was “enhanced tumorigenic growth”.

**Q.** What about the “tumorigenic growth (tumor volume) of Ikkβ^Δ dih cells” value [1, 14] of the same compound?
**A.** Its value is “not Ikkβ^Δ cells”.

**Q.** And the “IL-6 induced STAT3 activation” value [4]?
**A.** The value was “enhanced IL-6 induced STAT3 activation”.

**Q.** For `COc1ccc(O)c(C(C)(C)C)c1` [BHA, butylated hydroxyanisole], which “Ikkβ^Δ tumor growth” value [1, 15] is on record?
**A.** The value was “inhibits tumor growth; also recorded: reduced Ikkβ^Δ tumor growth to a level that was similar to that of Ikkβ^f/f tumors in untreated mice”.

**Q.** What about the “liver damage, compensatory proliferation and hepatocarcinogenesis” value ([5]; Ikkβ^Δhep and Ikkγ^Δhep mutant mice, BHA consumption) of the same compound?
**A.** The value was “reversed”.

**Q.** What about the “ROS accumulation in the liver” value ([5]; dietary administration) of the same compound?
**A.** The value was “can be prevented”.

**Q.** What about the “STAT3 phosphorylation in tumors” value [2, 15] of the same compound?
**A.** The value was “reduced”.

**Q.** And the “JAK2 phosphorylation in IKKβ-deficient tumors” value [6]?
**A.** Its value is “reduces”.

**Q.** And the “JNK activity in tumors” value [7]?
**A.** Its value is “reduced JNK activity”.

**Q.** What about the “SHP1/2 phosphatase activities in IKKβ-deficient tumors” value [8] of the same compound?
**A.** Its value is “restores SHP1/2 activity; also recorded: completely restored”.

**Q.** For `Cc1ccc(S(=O)(=O)OCC(=O)Nc2ccc(C(=O)O)c(O)c2)cc1` [S3I-201], which “tumor growth of breast cancer xenografts” value [9] is on record?
**A.** The value was “inhibition of tumor growth”.

**Q.** And the “in vivo tumorigenic growth of dih cells” value [1]?
**A.** The value was “effective inhibition”.

**Q.** And the “STAT3 tyrosine phosphorylation in Huh-7 xenografts” value [10]?
**A.** Its value is “inhibited”.

**Q.** And the “tumor growth of Huh-7 xenografts” value [10]?
**A.** The value was “inhibited”.

**Q.** For `CCN(CC)N=O` [DEN, diethyl nitrosamine], which HCC induction ([11]; male mice older than 4 weeks of age) is on record?
**A.** Its HCC induction is “no longer effective in HCC induction on its own”.

**Q.** What about the “HCC induction, fraction of male mice” value ([11]; single dose to two-weeks-old mice) of the same compound?
**A.** The value was 100%.

**Q.** For `Cc1cc(Nc2nc(N[C@@H](C)c3ncc(F)cn3)ncc2Cl)n[nH]1` [AZD1480], which “tumorigenic growth of cancer cells transplanted into mice” value [12] is on record?
**A.** Its value is “Effective inhibition”.

Source: patent publication US20140086939A1, “COMPOSITIONS AND METHODS FOR DETECTING AND TREATING CANCER” (priority 2011, published 2014)
